Values of other authors, collected in patent US20190307734A1 (Zhuhai Beihai Biotech Co., Ltd., priority 2016, published 2019).

Experiments:
CYP 2C19 = CYP 2C19 (Homo sapiens, UniProt P33261); details: in vitro
[1] = not given; remark: listed apart in the source
CYP 2C9 = CYP 2C9 (Homo sapiens, UniProt P11712); details: in vitro
[2] = test system: cytochrome P450 3A4 (CYP3A4)
CYP 2D6 = CYP 2D6 (Homo sapiens, UniProt P10635); details: in vitro
p-glycoprotein = p-glycoprotein (Homo sapiens, UniProt P08183); details: in vitro
Sequence of p-glycoprotein (P08183 whole entry): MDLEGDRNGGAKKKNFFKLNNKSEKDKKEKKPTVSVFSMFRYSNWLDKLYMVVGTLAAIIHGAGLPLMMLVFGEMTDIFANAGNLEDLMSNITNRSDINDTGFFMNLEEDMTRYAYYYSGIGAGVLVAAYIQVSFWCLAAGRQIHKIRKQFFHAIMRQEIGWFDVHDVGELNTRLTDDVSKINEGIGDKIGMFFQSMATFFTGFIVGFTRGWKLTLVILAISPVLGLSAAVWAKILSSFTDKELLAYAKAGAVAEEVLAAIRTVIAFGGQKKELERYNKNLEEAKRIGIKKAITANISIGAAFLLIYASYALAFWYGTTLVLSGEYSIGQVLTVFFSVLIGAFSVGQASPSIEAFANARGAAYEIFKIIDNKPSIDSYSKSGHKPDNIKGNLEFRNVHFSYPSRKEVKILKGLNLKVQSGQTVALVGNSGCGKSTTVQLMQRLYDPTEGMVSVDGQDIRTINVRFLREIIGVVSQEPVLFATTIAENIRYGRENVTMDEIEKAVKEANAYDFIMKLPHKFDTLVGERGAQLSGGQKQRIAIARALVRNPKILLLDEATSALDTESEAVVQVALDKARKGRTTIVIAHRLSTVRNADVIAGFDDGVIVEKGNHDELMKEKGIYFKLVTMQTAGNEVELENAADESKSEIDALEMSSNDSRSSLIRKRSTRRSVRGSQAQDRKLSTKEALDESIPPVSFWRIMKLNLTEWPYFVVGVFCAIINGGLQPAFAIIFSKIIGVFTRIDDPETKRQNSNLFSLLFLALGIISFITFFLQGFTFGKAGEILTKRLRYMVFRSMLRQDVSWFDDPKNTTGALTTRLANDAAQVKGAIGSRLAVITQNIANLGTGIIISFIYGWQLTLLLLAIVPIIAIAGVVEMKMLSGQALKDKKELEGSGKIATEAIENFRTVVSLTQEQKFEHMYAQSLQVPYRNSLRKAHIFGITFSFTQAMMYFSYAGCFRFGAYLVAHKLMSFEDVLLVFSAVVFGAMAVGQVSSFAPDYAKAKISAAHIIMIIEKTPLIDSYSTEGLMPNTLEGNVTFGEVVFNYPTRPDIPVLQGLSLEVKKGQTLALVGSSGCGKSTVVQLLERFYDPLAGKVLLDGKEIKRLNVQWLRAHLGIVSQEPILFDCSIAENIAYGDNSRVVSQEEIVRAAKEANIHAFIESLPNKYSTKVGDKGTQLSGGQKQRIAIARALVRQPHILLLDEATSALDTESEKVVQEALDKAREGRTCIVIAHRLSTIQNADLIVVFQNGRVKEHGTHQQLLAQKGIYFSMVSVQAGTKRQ

Sequence of CYP 2D6 (P10635 whole entry): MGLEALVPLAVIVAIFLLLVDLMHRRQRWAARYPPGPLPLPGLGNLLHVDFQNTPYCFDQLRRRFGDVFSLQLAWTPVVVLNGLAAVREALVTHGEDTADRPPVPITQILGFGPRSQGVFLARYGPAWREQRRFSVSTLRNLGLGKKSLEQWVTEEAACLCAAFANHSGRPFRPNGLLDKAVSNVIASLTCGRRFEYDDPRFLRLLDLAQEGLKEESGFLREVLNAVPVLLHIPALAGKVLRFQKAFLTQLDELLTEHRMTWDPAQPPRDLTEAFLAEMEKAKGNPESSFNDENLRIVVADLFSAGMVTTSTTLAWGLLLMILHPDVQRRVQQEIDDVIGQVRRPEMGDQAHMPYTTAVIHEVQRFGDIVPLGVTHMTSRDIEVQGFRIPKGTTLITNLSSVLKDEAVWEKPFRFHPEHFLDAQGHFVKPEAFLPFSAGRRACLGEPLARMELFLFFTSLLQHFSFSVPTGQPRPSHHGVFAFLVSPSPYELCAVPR
Sequence of CYP 2C9 (P11712 whole entry): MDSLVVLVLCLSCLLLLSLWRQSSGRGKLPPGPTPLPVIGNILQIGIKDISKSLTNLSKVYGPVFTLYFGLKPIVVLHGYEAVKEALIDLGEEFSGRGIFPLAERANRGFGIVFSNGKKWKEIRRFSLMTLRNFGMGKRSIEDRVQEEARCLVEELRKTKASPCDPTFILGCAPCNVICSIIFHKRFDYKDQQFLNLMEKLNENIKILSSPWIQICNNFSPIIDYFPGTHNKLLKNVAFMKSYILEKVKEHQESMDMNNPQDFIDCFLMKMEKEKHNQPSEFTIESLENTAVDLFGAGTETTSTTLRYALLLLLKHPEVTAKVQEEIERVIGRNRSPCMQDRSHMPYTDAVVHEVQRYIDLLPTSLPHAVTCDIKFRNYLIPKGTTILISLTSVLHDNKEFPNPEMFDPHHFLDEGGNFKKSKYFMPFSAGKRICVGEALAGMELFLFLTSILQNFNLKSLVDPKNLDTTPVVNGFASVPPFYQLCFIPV
Sequence of CYP 2C19 (P33261 whole entry): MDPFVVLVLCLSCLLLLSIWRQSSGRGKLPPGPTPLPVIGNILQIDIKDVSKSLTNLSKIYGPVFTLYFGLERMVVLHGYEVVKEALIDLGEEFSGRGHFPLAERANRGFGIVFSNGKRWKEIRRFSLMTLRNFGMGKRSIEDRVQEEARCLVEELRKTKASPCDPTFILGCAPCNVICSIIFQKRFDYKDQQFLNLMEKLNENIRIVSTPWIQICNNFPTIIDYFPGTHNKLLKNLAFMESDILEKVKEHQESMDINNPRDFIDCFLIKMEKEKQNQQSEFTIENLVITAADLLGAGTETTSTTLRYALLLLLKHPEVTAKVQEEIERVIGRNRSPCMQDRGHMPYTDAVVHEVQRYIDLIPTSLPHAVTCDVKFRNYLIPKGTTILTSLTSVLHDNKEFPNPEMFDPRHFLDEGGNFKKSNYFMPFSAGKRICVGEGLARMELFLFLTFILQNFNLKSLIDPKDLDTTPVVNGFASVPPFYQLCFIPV

Row | SMILES | solubility in aqueous solution, pH dependence (aqueous solution) | solubility in common pharmaceutical solvents (ethanol, propylene glycol, 40% hydroxypropyl beta cyclodextrin) | protein bound to human plasma (human plasma) [%] | inhibition of CYP 2C19 (CYP 2C19) | absorption after oral dosing [1] | inhibition of CYP 2C9 (CYP 2C9) | induction or inhibition of CYP3A4 enzyme ([2]; Hesketh et al., Cancer 2016) | inhibition of CYP 3A4 ([2]; in vitro) | inhibition of CYP 2D6 (CYP 2D6) | solubility at physiological pH (pH 7.4) [mcg/ml] | solubility in water (water) | inhibition of p-glycoprotein (p-glycoprotein)
1 | C[C@@H](OC[C@@]1(c2ccccc2)CC[C@]2(CCC(=O)N2)CN1)c1cc(C(F)(F)F)cc(C(F)(F)F)c1.Cl [Rolapitant hydrochloride, rolapitant hydrochloride] | pH-dependent and is more soluble at lower pH | good solubility |  |  |  |  |  |  |  |  |  | 
2 | C[C@@H](OC[C@@]1(c2ccccc2)CC[C@]2(CCC(=O)N2)CN1)c1cc(C(F)(F)F)cc(C(F)(F)F)c1 [Rolapitant, rolapitant] |  |  | 99.8 | did not inhibit | rapidly absorbed | did not inhibit | does not induce or inhibit | did not inhibit | did not inhibit | < 4 | practically insoluble | did not inhibit
